Molecular target: T1, human TGR5 (h-TGR5) (Homo sapiens, UniProt Q8TDU6)
T1 construct: expressed in transfected cells
T1 sequence (Q8TDU6 1-330): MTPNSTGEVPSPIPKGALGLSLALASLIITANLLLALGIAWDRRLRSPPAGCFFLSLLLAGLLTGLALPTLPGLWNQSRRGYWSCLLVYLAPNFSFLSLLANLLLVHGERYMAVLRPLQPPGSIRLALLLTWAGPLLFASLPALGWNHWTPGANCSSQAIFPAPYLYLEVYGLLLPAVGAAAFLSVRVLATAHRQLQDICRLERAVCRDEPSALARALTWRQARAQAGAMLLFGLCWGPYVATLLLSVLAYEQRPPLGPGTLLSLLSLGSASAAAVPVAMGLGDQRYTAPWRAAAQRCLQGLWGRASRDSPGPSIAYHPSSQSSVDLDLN
Test: TGR5/CRE-Luciferiase Assay (HEK 293 hTGR5/CRE-Luc cells)
Format: cell-based
Conditions: h-TGR5 CRE-Luc EC50, Table 1; read-out: CRE-Luc (EC50)
Method: Compounds were serially diluted in DMEM containing 5% DMSO and 5 μL of compound or media alone was transferred to each well and plates were incubated for 6 hours. Following incubation, 30 μL of lysis/luciferase buffer was added to each well. The luciferase activity was then measured on the EnVision™ plate reader and the dose response data was analyzed using ActivityBase.
In the following tables, EC50 values determined according to the TGR5 cAMP Assay described herein (cAMP); EC50 values determined according to the TGR5/CRE-Luciferiase Assay described herein (CRE-Luc). […] The following compounds in Tables 1 and 2 were made by using procedures described in the above Schemes and Examples, and, where applicable, by making any necessary substitutions of known materials that one skilled in the art would ordinarily understand how to do.

EC50 [µM]	Structure (SMILES)
1 to 10	CC(C)(c1ccc(Cl)c(Cl)c1)c1cnc(COc2ccc(C(N)=O)c(Cl)c2)n1-c1ccc(F)cc1 [2-chloro-4-[({5-[1-(3,4-dichlorophenyl)-1-methylethyl]-1-(4-fluorophenyl)-1H-imidazol-2-yl}methyl)oxy]benzamide]
0.1 to 1	CC(C)(c1ccc(Cl)c(Cl)c1)c1cnc(SCc2ccc(C(N)=O)c(Cl)c2)n1-c1ccc(F)cc1 [2-chloro-4-[({5-[1-(3,4-dichlorophenyl)-1-methylethyl]-1-(4-fluorophenyl)-1H-imidazol-2-yl}thio)methyl]benzamide]
1 to 10	CC(C)(c1ccc(Cl)c(Cl)c1)c1cnc(SCc2ccc(C(=N)N)c(Cl)c2)n1-c1ccc(F)cc1 [2-chloro-4-[({5-[1-(3,4-dichlorophenyl)-1-methylethyl]-1-(4-fluorophenyl)-1H-imidazol-2-yl}thio)methyl]benzenecarboximidamide]
0.1 to 1	CC(C)(c1ccc(Cl)c(Cl)c1)c1cnc(SCc2ccc(C#N)c(Cl)c2)n1-c1ccc(F)cc1 [2-chloro-4-[({5-[1-(3,4-dichlorophenyl)-1-methylethyl]-1-(4-fluorophenyl)-1H-imidazol-2-yl}thio)methyl]benzonitrile]
0.1 to 1	CC(C)(c1ccc(Cl)c(Cl)c1)c1cnc(COc2ccc(Cl)c(S(N)(=O)=O)c2)n1-c1ccc(F)cc1 [2-chloro-5-[({5-[1-(3,4-dichlorophenyl)-1-methylethyl]-1-(4-fluorophenyl)-1H-imidazol-2-yl}methyl)oxy]benzenesulfonamide]
< 0.1	CC(C)(c1ccc(Cl)c(Cl)c1)c1cnc(SCc2ccc(Cl)c(C(N)=O)c2)n1-c1ccc(F)cc1 [2-chloro-5-[({5-[1-(3,4-dichlorophenyl)-1-methylethyl]-1-(4-fluorophenyl)-1H-imidazol-2-yl}thio)methyl]benzamide]
1 to 10	CC(C)(c1ccc(Cl)c(Cl)c1)c1cnc(SCc2ccc(Cl)c(C(=N)N)c2)n1-c1ccc(F)cc1 [2-chloro-5-[({5-[1-(3,4-dichlorophenyl)-1-methylethyl]-1-(4-fluorophenyl)-1H-imidazol-2-yl}thio)methyl]benzenecarboximidamide]
0.1 to 1	CC(C)(c1ccc(Cl)c(Cl)c1)c1cnc(SCc2ccc(Cl)c(C(=O)O)c2)n1-c1ccc(F)cc1 [2-chloro-5-[({5-[1-(3,4-dichlorophenyl)-1-methylethyl]-1-(4-fluorophenyl)-1H-imidazol-2-yl}thio)methyl]benzoic acid]
0.1 to 1	CC(C)(c1ccc(Cl)c(S(N)(=O)=O)c1)c1cnc(SCc2ccc(Cl)c(-c3nnn[nH]3)c2)n1-c1ccc(F)cc1 [2-chloro-5-{1-[2-({[4-chloro-3-(1H-tetrazol-5-yl)phenyl]methyl}thio)-1-(4-fluorophenyl)-1H-imidazol-5-yl]-1-methylethyl}benzenesulfonamide]
< 0.1	CC(C)(c1ccc(Cl)c(O)c1)c1cnc(SCc2c(F)cccc2Cl)n1-c1ccc(F)cc1 [2-chloro-5-{1-[2-{[(2-chloro-6-fluorophenyl)methyl]thio}-1-(4-fluorophenyl)-1H-imidazol-5-yl]-1-methylethyl}phenol]
1 to 10	CC(c1ncc(C(C)(C)c2ccc(Cl)c(Cl)c2)n1-c1ccc(F)cc1)S(=O)(=O)c1ccc(F)cc1Cl (centres unmarked) [2-{1-[(2-chloro-4-fluorophenyl)sulfonyl]ethyl}-5-[1-(3,4-dichlorophenyl)-1-methylethyl]-1-(4-fluorophenyl)-1H-imidazole]
1 to 10	CC(Sc1ccc(F)cc1Cl)c1ncc(C(C)(C)c2ccc(Cl)c(Cl)c2)n1-c1ccc(F)cc1 (centres unmarked) [2-{1-[(2-chloro-4-fluorophenyl)thio]ethyl}-5-[1-(3,4-dichlorophenyl)-1-methylethyl]-1-(4-fluorophenyl)-1H-imidazole]
0.1 to 1	CC(C)(O)c1cccc(F)c1CSc1ncc(C(C)(C)c2ccc(Cl)c(Cl)c2)n1-c1ccc(F)cc1 [2-{2-[({5-[1-(3,4-dichlorophenyl)-1-methylethyl]-1-(4-fluorophenyl)-1H-imidazol-2-yl}thio)methyl]-3-fluorophenyl}propan-2-ol]
0.1 to 1	CC(C)(O)c1cc(CSc2ncc(C(C)(C)c3ccc(Cl)c(Cl)c3)n2-c2ccc(F)cc2)ccc1Cl [2-{2-chloro-5-[({5-[1-(3,4-dichlorophenyl)-1-methylethyl]-1-(4-fluorophenyl)-1H-imidazol-2-yl}thio)methyl]phenyl}propan-2-ol]
1 to 10	CC(C)(C(=O)O)c1ccc(F)c(CSc2ncc(C(C)(C)c3ccc(Cl)c(Cl)c3)n2-c2ccc(F)cc2)c1 [2-{3-[({5-[1-(3,4-dichlorophenyl)-1-methylethyl]-1-(4-fluorophenyl)-1H-imidazol-2-yl}thio)methyl]-4-fluorophenyl}-2-methylpropanoic acid]
0.1 to 1	CC(C)(O)c1ccc(CSc2ncc(C(C)(C)c3ccc(Cl)c(Cl)c3)n2-c2ccc(F)cc2)c(Cl)c1 [2-{3-chloro-4-[({5-[1-(3,4-dichlorophenyl)-1-methylethyl]-1-(4-fluorophenyl)-1H-imidazol-2-yl}thio)methyl]phenyl}propan-2-ol]
0.1 to 1	CC(C)(C(=O)O)c1ccc(CSc2ncc(C(C)(C)c3ccc(Cl)c(Cl)c3)n2-c2ccc(F)cc2)c(F)c1 [2-{4-[({5-[1-(3,4-dichlorophenyl)-1-methylethyl]-1-(4-fluorophenyl)-1H-imidazol-2-yl}thio)methyl]-3-fluorophenyl}-2-methylpropanoic acid]
0.1 to 1	CC(C)(O)c1ccc(CSc2ncc(C(C)(C)c3ccc(Cl)c(Cl)c3)n2-c2ccc(F)cc2)c(F)c1 [2-{4-[({5-[1-(3,4-dichlorophenyl)-1-methylethyl]-1-(4-fluorophenyl)-1H-imidazol-2-yl}thio)methyl]-3-fluorophenyl}propan-2-ol]
1 to 10	CC(C)(C(=O)O)c1cc(CSc2ncc(C(C)(C)c3ccc(Cl)c(Cl)c3)n2-c2ccc(F)cc2)ccc1F [2-{5-[({5-[1-(3,4-dichlorophenyl)-1-methylethyl]-1-(4-fluorophenyl)-1H-imidazol-2-yl}thio)methyl]-2-fluorophenyl}-2-methylpropanoic acid]
0.1 to 1	CC(C)(O)c1cc(CSc2ncc(C(C)(C)c3ccc(Cl)c(Cl)c3)n2-c2ccc(F)cc2)ccc1F [2-{5-[({5-[1-(3,4-dichlorophenyl)-1-methylethyl]-1-(4-fluorophenyl)-1H-imidazol-2-yl}thio)methyl]-2-fluorophenyl}propan-2-ol]
0.1 to 1	CC(C)(c1ccc(Cl)c(Cl)c1)c1cnc(S(=O)(=O)C(C)(C)c2c(F)cccc2Cl)n1-c1ccc(F)cc1 [2-{[1-(2-chloro-6-fluorophenyl)-1-methylethyl]sulfonyl}-5-[1-(3,4-dichlorophenyl)-1-methylethyl]-1-(4-fluorophenyl)-1H-imidazole]
1 to 10	CC(C)(Oc1cc(-n2c(C(C)(C)c3ccc(Cl)c(Cl)c3)cnc2SCc2ccc(F)cc2Cl)ccc1F)C(=O)O [2-{[5-(2-{[(2-chloro-4-fluorophenyl)methyl]thio}-5-[1-(3,4-dichlorophenyl)-1-methylethyl]-1H-imidazol-1-yl)-2-fluorophenyl]oxy}-2-methylpropanoic acid]
1 to 10	CC(C)(c1ccc(Cl)c(Cl)c1)c1cnc(S(=O)(=O)Cc2ccc(F)cc2Cl)n1-c1ccc(F)cc1 [2-{[(2-chloro-4-fluorophenyl)methyl]sulfonyl}-5-[1-(3,4-dichlorophenyl)-1-methylethyl]-1-(4-fluorophenyl)-1H-imidazole]
1 to 10	CC(C)(c1ccc(F)c(F)c1)c1cnc(S(=O)(=O)Cc2ccc(F)cc2Cl)n1-c1ccc(F)cc1 [2-{[(2-chloro-4-fluorophenyl)methyl]sulfonyl}-5-[1-(3,4-difluorophenyl)-1-methylethyl]-1-(4-fluorophenyl)-1H-imidazole]
1 to 10	CC(C)(c1ccc(OC(F)(F)F)c(Cl)c1)c1cnc(SCc2ccc(F)cc2Cl)n1-c1ccc(F)cc1 [2-{[(2-chloro-4-fluorophenyl)methyl]thio}-5-(1-{3-chloro-4-[(trifluoromethyl)oxy]phenyl}-1-methylethyl)-1-(4-fluorophenyl)-1H-imidazole]
< 0.1	CC(C)(c1ccc2c(c1)OCCO2)c1cnc(SCc2ccc(F)cc2Cl)n1-c1ccc(F)cc1 [2-{[(2-chloro-4-fluorophenyl)methyl]thio}-5-[1-(2,3-dihydro-1,4-benzodioxin-6-yl)-1-methylethyl]-1-(4-fluorophenyl)-1H-imidazole]
0.1 to 1	CC(C)(c1ccc(Cl)c(Cl)c1)c1cnc(SCc2ccc(F)cc2Cl)n1-c1ccc(F)c(F)c1 [2-{[(2-chloro-4-fluorophenyl)methyl]thio}-5-[1-(3,4-dichlorophenyl)-1-methylethyl]-1-(3,4-difluorophenyl)-1H-imidazole]
0.1 to 1	CC(C)(c1ccc(Cl)c(Cl)c1)c1cnc(SCc2ccc(F)cc2Cl)n1-c1cc(F)cc(F)c1 [2-{[(2-chloro-4-fluorophenyl)methyl]thio}-5-[1-(3,4-dichlorophenyl)-1-methylethyl]-1-(3,5-difluorophenyl)-1H-imidazole]
0.1 to 1	CC(C)(c1ccc(Cl)c(Cl)c1)c1cnc(SCc2ccc(F)cc2Cl)n1-c1ccc(F)cc1 [2-{[(2-chloro-4-fluorophenyl)methyl]thio}-5-[1-(3,4-dichlorophenyl)-1-methylethyl]-1-(4-fluorophenyl)-1H-imidazole]

— patent publication US8785488B2 (Exelixis Patent Company LLC, priority 2009, dated 2014)
